Target: human chemokine receptor CXCR7 (Homo sapiens (Human), UniProt P25106)
Assay: Tango CXCR7-bla U2OS beta-arrestin recruitment assay (beta-lactamase reporter, FRET), antagonism of CXCL12/SDF1-α;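 also: compounds preincubated 15 min before CXCL12 addition, then 22 h at 37 °C, FRET emission ratio read with CCF4-AM substrate after 2 h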
Assay type: cell-based
Details: antagonistic effect on CXCR7; Tango CXCR7-bla U2OS cells, CXCL12/SDF1-α at its EC80

human chemokine receptor CXCR7, sequence (P25106 whole entry): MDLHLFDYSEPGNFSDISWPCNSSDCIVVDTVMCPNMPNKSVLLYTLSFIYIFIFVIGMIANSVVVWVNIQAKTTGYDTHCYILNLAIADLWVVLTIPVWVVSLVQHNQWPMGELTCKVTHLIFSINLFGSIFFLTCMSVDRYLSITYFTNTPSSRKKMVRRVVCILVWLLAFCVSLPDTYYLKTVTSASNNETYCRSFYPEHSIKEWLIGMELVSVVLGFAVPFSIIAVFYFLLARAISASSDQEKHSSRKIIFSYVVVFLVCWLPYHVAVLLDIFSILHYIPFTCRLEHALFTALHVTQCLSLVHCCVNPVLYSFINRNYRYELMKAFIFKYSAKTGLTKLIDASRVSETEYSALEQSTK

IC50 | Compound
564 nM | O=C(N[C@@H]1CCN(C2CCCCC2)C[C@H]1C(=O)NC1CCCC1)c1cc(-c2ccc(F)cc2F)on1 (racemic) [Example 1.003, rac-(3R*,4R*)-1-Cyclohexyl-4-{[5-(2,4-difluoro-phenyl)-isoxazole-3-carbonyl]-amino}-piperidine-3-carboxylic acid cyclopentylamide]
198 nM | CN(CCO)C(=O)[C@@H]1CN(C2CCCCC2)CC[C@H]1NC(=O)c1cc(-c2ccc(F)cc2F)on1 (racemic) [Example 1.005, rac-(3R*,4R*)-1-Cyclohexyl-4-{[5-(2,4-difluoro-phenyl)-isoxazole-3-carbonyl]-amino}-piperidine-3-carboxylic acid (2-hydroxy-ethyl)-methyl-amide]
414 nM | COCCNC(=O)[C@@H]1CN(C2CCCCC2)CC[C@H]1NC(=O)c1cc(-c2ccc(F)cc2F)on1 (racemic) [Example 1.006, rac-(3R*,4R*)-1-Cyclohexyl-4-{[5-(2,4-difluoro-phenyl)-isoxazole-3-carbonyl]-amino}-piperidine-3-carboxylic acid (2-methoxy-ethyl)-amide]
780 nM | CC(C)CNC(=O)[C@@H]1CN(C2CCCCC2)CC[C@H]1NC(=O)c1cc(-c2ccc(F)cc2F)on1 (racemic) [Example 1.007, rac-(3R*,4R*)-1-Cyclohexyl-4-{[5-(2,4-difluoro-phenyl)-isoxazole-3-carbonyl]-amino}-piperidine-3-carboxylic acid isobutyl-amide]
394 nM | CC(C)NC(=O)[C@@H]1CN(C2CCCCC2)CC[C@H]1NC(=O)c1cc(-c2ccc(F)cc2F)on1 (racemic) [Example 1.008, rac-(3R*,4R*)-1-Cyclohexyl-4-{[5-(2,4-difluoro-phenyl)-isoxazole-3-carbonyl]-amino}-piperidine-3-carboxylic acid isopropylamide]
282 nM | O=C(N[C@@H]1CCN(C2CCCCC2)C[C@H]1C(=O)NCCF)c1cc(-c2ccc(F)cc2F)on1 (racemic) [Example 1.011, rac-(3R*,4R*)-1-Cyclohexyl-4-{[5-(2,4-difluoro-phenyl)-isoxazole-3-carbonyl]-amino}-piperidine-3-carboxylic acid (2-fluoro-ethyl)-amide]
58 nM | CCNC(=O)[C@@H]1CN(C2CCCCC2)CC[C@H]1NC(=O)c1cc(-c2ccc(F)cc2F)on1 (racemic) [Example 1.012, rac-(3R*,4R*)-1-Cyclohexyl-4-{[5-(2,4-difluoro-phenyl)-isoxazole-3-carbonyl]-amino}-piperidine-3-carboxylic acid ethylamide]
238 nM | CN(C(=O)[C@@H]1CN(C2CCCCC2)CC[C@H]1NC(=O)c1cc(-c2ccc(F)cc2F)on1)C1CC1 (racemic) [Example 1.013, rac-(3R*,4R*)-1-Cyclohexyl-4-{[5-(2,4-difluoro-phenyl)-isoxazole-3-carbonyl]-amino}-piperidine-3-carboxylic acid cyclopropyl-methyl-amide]
289 nM | NC(=O)CNC(=O)[C@@H]1CN(C2CCCCC2)CC[C@H]1NC(=O)c1cc(-c2ccc(F)cc2F)on1 (racemic) [Example 1.014, rac-(3R*,4R*)-1-Cyclohexyl-4-{[5-(2,4-difluoro-phenyl)-isoxazole-3-carbonyl]-amino}-piperidine-3-carboxylic acid carbamoylmethyl-amide]
275 nM | O=C(N[C@@H]1CCN(C2CCCCC2)C[C@H]1C(=O)N1CCOCC1)c1cc(-c2ccc(F)cc2F)on1 (racemic) [Example 1.016, rac-5-(2,4-Difluoro-phenyl)-isoxazole-3-carboxylic acid [(3R*,4R*)-1-cyclohexyl-3-(morpholine-4-carbonyl)-piperidin-4-yl]-amide]
489 nM | CC(C)N(C)C(=O)[C@@H]1CN(C2CCCCC2)CC[C@H]1NC(=O)c1cc(-c2ccc(F)cc2F)on1 (racemic) [Example 1.017, rac-(3R*,4R*)-1-Cyclohexyl-4-{[5-(2,4-difluoro-phenyl)-isoxazole-3-carbonyl]-amino}-piperidine-3-carboxylic acid isopropyl-methyl-amide]
317 nM | CN(C)CCN(C)C(=O)[C@@H]1CN(C2CCCCC2)CC[C@H]1NC(=O)c1cc(-c2ccc(F)cc2F)on1 (racemic) [Example 1.018, rac-(3R*,4R*)-1-Cyclohexyl-4-{[5-(2,4-difluoro-phenyl)-isoxazole-3-carbonyl]-amino}-piperidine-3-carboxylic acid (2-dimethylamino-ethyl)-methyl-amide]
145 nM | CCOCCN(C)C(=O)[C@@H]1CN(C2CCCCC2)CC[C@H]1NC(=O)c1cc(-c2ccc(F)cc2F)on1 (racemic) [Example 1.019, rac-(3R*,4R*)-1-Cyclohexyl-4-{[5-(2,4-difluoro-phenyl)-isoxazole-3-carbonyl]-amino}-piperidine-3-carboxylic acid (2-ethoxy-ethyl)-methyl-amide]
198 nM | Cc1cc(CNC(=O)[C@@H]2CN(C3CCCCC3)CC[C@H]2NC(=O)c2cc(-c3ccc(F)cc3F)on2)no1 (racemic) [Example 1.022, rac-(3R*,4R*)-1-Cyclohexyl-4-{[5-(2,4-difluoro-phenyl)-isoxazole-3-carbonyl]-amino}-piperidine-3-carboxylic acid (5-methyl-isoxazol-3-ylmethyl)-amide]
743 nM | CN(C)CCNC(=O)[C@@H]1CN(C2CCCCC2)CC[C@H]1NC(=O)c1cc(-c2ccc(F)cc2F)on1 (racemic) [Example 1.023, rac-(3R*,4R*)-1-Cyclohexyl-4-{[5-(2,4-difluoro-phenyl)-isoxazole-3-carbonyl]-amino}-piperidine-3-carboxylic acid (2-dimethylamino-ethyl)-amide]
627 nM | O=C(N[C@@H]1CCN(C2CCCCC2)C[C@H]1C(=O)NCC(F)F)c1cc(-c2ccc(F)cc2F)on1 (racemic) [Example 1.026, rac-(3R*,4R*)-1-Cyclohexyl-4-{[5-(2,4-difluoro-phenyl)-isoxazole-3-carbonyl]-amino}-piperidine-3-carboxylic acid (2,2-difluoro-ethyl)-amide]
117 nM | COCCCN(C)C(=O)[C@@H]1CN(C2CCCCC2)CC[C@H]1NC(=O)c1cc(-c2ccc(F)cc2F)on1 (racemic) [Example 1.027, rac-(3R*,4R*)-1-Cyclohexyl-4-{[5-(2,4-difluoro-phenyl)-isoxazole-3-carbonyl]-amino}-piperidine-3-carboxylic acid (3-methoxy-propyl)-methyl-amide]
315 nM | Cc1cc(CNC(=O)[C@@H]2CN(C3CCCCC3)CC[C@H]2NC(=O)c2cc(-c3ccc(F)cc3F)on2)on1 (racemic) [Example 1.029, rac-(3R*,4R*)-1-Cyclohexyl-4-{[5-(2,4-difluoro-phenyl)-isoxazole-3-carbonyl]-amino}-piperidine-3-carboxylic acid (3-methyl-isoxazol-5-ylmethyl)-amide]
855 nM | Cc1nc(CNC(=O)[C@@H]2CN(C3CCCCC3)CC[C@H]2NC(=O)c2cc(-c3ccc(F)cc3F)on2)cs1 (racemic) [Example 1.031, rac-(3R*,4R*)-1-Cyclohexyl-4-{[5-(2,4-difluoro-phenyl)-isoxazole-3-carbonyl]-amino}-piperidine-3-carboxylic acid (2-methyl-thiazol-4-ylmethyl)-amide]
154 nM | O=C(N[C@@H]1CCN(C2CCCCC2)C[C@H]1C(=O)NCc1ncccn1)c1cc(-c2ccc(F)cc2F)on1 (racemic) [Example 1.032, rac-(3R*,4R*)-1-Cyclohexyl-4-{[5-(2,4-difluoro-phenyl)-isoxazole-3-carbonyl]-amino}-piperidine-3-carboxylic acid (pyrimidin-2-ylmethyl)-amide]
591 nM | Cc1ncsc1CNC(=O)[C@@H]1CN(C2CCCCC2)CC[C@H]1NC(=O)c1cc(-c2ccc(F)cc2F)on1 (racemic) [Example 1.033, rac-(3R*,4R*)-1-Cyclohexyl-4-{[5-(2,4-difluoro-phenyl)-isoxazole-3-carbonyl]-amino}-piperidine-3-carboxylic acid (4-methyl-thiazol-5-ylmethyl)-amide]
772 nM | O=C(N[C@@H]1CCN(C2CCCCC2)C[C@H]1C(=O)NCc1ccncn1)c1cc(-c2ccc(F)cc2F)on1 (racemic) [Example 1.034, rac-(3R*,4R*)-1-Cyclohexyl-4-{[5-(2,4-difluoro-phenyl)-isoxazole-3-carbonyl]-amino}-piperidine-3-carboxylic acid (pyrimidin-4-ylmethyl)-amide]
520 nM | O=C(N[C@@H]1CCN(C2CCCCC2)C[C@H]1C(=O)NCc1cnco1)c1cc(-c2ccc(F)cc2F)on1 (racemic) [Example 1.035, rac-(3R*,4R*)-1-Cyclohexyl-4-{[5-(2,4-difluoro-phenyl)-isoxazole-3-carbonyl]-amino}-piperidine-3-carboxylic acid (oxazol-5-ylmethyl)-amide]
693 nM | O=C(N[C@@H]1CCN(C2CCCCC2)C[C@H]1C(=O)N1CC(F)C1)c1cc(-c2ccc(F)cc2F)on1 (racemic) [Example 1.036, rac-5-(2,4-Difluoro-phenyl)-isoxazole-3-carboxylic acid [(3R*,4R*)-1-cyclohexyl-3-(3-fluoro-azetidine-1-carbonyl)-piperidin-4-yl]-amide]
295 nM | O=C(N[C@@H]1CCN(C2CCCCC2)C[C@H]1C(=O)NCc1cnccn1)c1cc(-c2ccc(F)cc2F)on1 (racemic) [Example 1.037, rac-(3R*,4R*)-1-Cyclohexyl-4-{[5-(2,4-difluoro-phenyl)-isoxazole-3-carbonyl]-amino}-piperidine-3-carboxylic acid (pyrazin-2-ylmethyl)-amide]
490 nM | O=C(N[C@@H]1CCN(C2CCCCC2)C[C@H]1C(=O)NCCOC(F)(F)F)c1cc(-c2ccc(F)cc2F)on1 (racemic) [Example 1.038, rac-(3R*,4R*)-1-Cyclohexyl-4-{[5-(2,4-difluoro-phenyl)-isoxazole-3-carbonyl]-amino}-piperidine-3-carboxylic acid (2-trifluoromethoxy-ethyl)-amide]
492 nM | CN(CC1COC1)C(=O)[C@@H]1CN(C2CCCCC2)CC[C@H]1NC(=O)c1cc(-c2ccc(F)cc2F)on1 (racemic) [Example 1.039, rac-(3R*,4R*)-1-Cyclohexyl-4-{[5-(2,4-difluoro-phenyl)-isoxazole-3-carbonyl]-amino}-piperidine-3-carboxylic acid methyl-oxetan-3-ylmethyl-amide]

— US11306078B2, “Piperidine CXCR7 receptor modulators” (IDORSIA PHARMACEUTICALS LTD., priority 2016, dated 2022)
